Test results from US6908919B2, “Substituted polycyclic aryl and heteroaryl pyrazinones useful for selective inhibition of the coagulation cascade” (Pharmacia Corporation, priority 1999, dated 2005).

Molecular target: Human factor Xa (Homo sapiens, UniProt P00742)
Assay: Xa Assay
Type: biochemical
Design: purchased Enzyme Research Laboratories, South Bend Ind
Details: at 30 µM inhibitor

Sequence of Human factor Xa (P00742 41-179 limits assumed): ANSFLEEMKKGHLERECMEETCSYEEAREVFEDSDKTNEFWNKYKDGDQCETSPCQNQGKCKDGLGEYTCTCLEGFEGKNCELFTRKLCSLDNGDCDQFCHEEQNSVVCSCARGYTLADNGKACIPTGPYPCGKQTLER
Sequence of Human factor Xa (P00742 235-488 limits assumed): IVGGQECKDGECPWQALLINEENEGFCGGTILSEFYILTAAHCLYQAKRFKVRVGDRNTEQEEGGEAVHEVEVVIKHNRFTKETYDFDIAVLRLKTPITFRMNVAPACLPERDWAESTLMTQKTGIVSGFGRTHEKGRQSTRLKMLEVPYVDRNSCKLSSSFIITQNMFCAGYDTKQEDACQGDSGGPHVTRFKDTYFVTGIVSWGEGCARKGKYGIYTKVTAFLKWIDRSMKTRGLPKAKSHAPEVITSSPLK

| % Inhibition Factor Xa (30 µM) [%] | SMILES |
| --- | --- |
| 0 | CCc1c(Cl)nc(NCCc2ccc(Cl)cc2)c(=O)n1CC(=O)NCc1ccc(C(=N)N)cc1 [1471-58] |
| 0 | CCc1c(Cl)nc(NCc2ccncc2)c(=O)n1CC(=O)NCc1ccc(C(=N)N)cc1 [1471-59] |
| 0 | CCc1c(Cl)nc(NCCN2CCOCC2)c(=O)n1CC(=O)NCc1ccc(C(=N)N)cc1 [1471-60] |
| 0 | CCc1c(Cl)nc(NCCc2ccncc2)c(=O)n1CC(=O)NCc1ccc(C(=N)N)cc1 [1471-61] |
| 2 | CCc1c(Cl)nc(NCCc2ccccc2)c(=O)n1CC(=O)NCc1ccc(C(=N)N)cc1 [1471-63] |
| 2 | CCc1c(Cl)nc(NCCc2cccnc2)c(=O)n1CC(=O)NCc1ccc(C(=N)N)cc1 [1471-64] |
| 9 | N=C(N)c1ccc(CNC(=O)Cn2c(-c3ccccc3)c(Cl)nc(NC3CCc4ccccc43)c2=O)cc1 (stereo not drawn) [1507-02] |
| 21 | N=C(N)c1ccc(CNC(=O)Cn2c(-c3ccccc3)c(Cl)nc(NCc3ccccc3Cl)c2=O)cc1 [1507-03] |
| 10 | N=C(N)c1ccc(CNC(=O)Cn2c(-c3ccccc3)c(Cl)nc(NCCCn3ccnc3)c2=O)cc1 [1507-05] |
| 13 | N=C(N)c1ccc(CNC(=O)Cn2c(-c3ccccc3)c(Cl)nc(NCC(c3ccccc3)c3ccccc3)c2=O)cc1 [1507-09] |
| 18 | N=C(N)c1ccc(CNC(=O)Cn2c(-c3ccccc3)c(Cl)nc(NC3CCCc4ccccc43)c2=O)cc1 (stereo not drawn) [1507-16] |
| 16 | N=C(N)c1ccc(CNC(=O)Cn2c(-c3ccccc3)c(Cl)nc(NCCC3=CCCCC3)c2=O)cc1 [1507-17] |
| 4 | N=C(N)c1ccc(CNC(=O)Cn2c(-c3ccccc3)c(Cl)nc(NCCCN3CCCC3=O)c2=O)cc1 [1507-19] |
| 23 | N=C(N)c1ccc(CNC(=O)Cn2c(-c3ccccc3)c(Cl)nc(NC3CCC3)c2=O)cc1 [1507-21] |
| 4 | N=C(N)c1ccc(CNC(=O)Cn2c(-c3ccccc3)c(Cl)nc(NC3CCCCCC3)c2=O)cc1 [1507-29] |
| 28 | N=C(N)c1ccc(CNC(=O)Cn2c(-c3ccccc3)c(Cl)nc(NC(c3ccccc3)c3ccccc3)c2=O)cc1 [1507-35] |
| 0 | N=C(N)c1ccc(CNC(=O)Cn2c(-c3ccccc3)c(Cl)nc(NC3CCS(=O)(=O)C3)c2=O)cc1 (stereo not drawn) [1507-36] |
| 11 | N=C(N)c1ccc(CNC(=O)Cn2c(-c3ccccc3)c(Cl)nc(NCc3cc(C(F)(F)F)cc(C(F)(F)F)c3)c2=O)cc1 [1507-40] |
| 21 | N=C(N)c1ccc(CNC(=O)Cn2c(-c3ccccc3)c(Cl)nc(NCCCCc3ccccc3)c2=O)cc1 [1507-43] |

| % Inhibition Factor Xa (30 µM) [%] | SMILES |
| --- | --- |
| 9 | N=C(N)c1ccc(CNC(=O)Cn2c(-c3ccccc3)c(Cl)nc(NCCc3ccc(Cl)c(Cl)c3)c2=O)cc1 [1507-44] |
| 8 | N=C(N)c1ccc(CNC(=O)Cn2c(-c3ccccc3)c(Cl)nc(NCc3ccc(Cl)cc3)c2=O)cc1 [1507-46] |
| 19 | CN(C)CCCNc1nc(Cl)c(-c2ccccc2)n(CC(=O)NCc2ccc(C(=N)N)cc2)c1=O [1507-47] |
| 4 | N=C(N)c1ccc(CNC(=O)Cn2c(-c3ccccc3)c(Cl)nc(NCC3COc4ccccc4O3)c2=O)cc1 (stereo not drawn) [1512-01] |
| 3 | COc1cccc(CNc2nc(Cl)c(-c3ccccc3)n(CC(=O)NCc3ccc(C(=N)N)cc3)c2=O)c1OC [1512-02] |
| 10 | COc1ccc(CCNc2nc(Cl)c(-c3ccccc3)n(CC(=O)NCc3ccc(C(=N)N)cc3)c2=O)cc1OC [1512-05] |
| 4 | N=C(N)c1ccc(CNC(=O)Cn2c(-c3ccccc3)c(Cl)nc(NCCCc3ccccc3)c2=O)cc1 [1512-06] |
| 5 | CCOc1ccccc1CNc1nc(Cl)c(-c2ccccc2)n(CC(=O)NCc2ccc(C(=N)N)cc2)c1=O [1512-11] |
| 5 | CCCCC(CC)Nc1nc(Cl)c(-c2ccccc2)n(CC(=O)NCc2ccc(C(=N)N)cc2)c1=O (stereo not drawn) [1512-12] |
| 7 | CCCCNc1nc(Cl)c(-c2ccccc2)n(CC(=O)NCc2ccc(C(=N)N)cc2)c1=O [1512-14] |
| 6 | CN(C)CCNc1nc(Cl)c(-c2ccccc2)n(CC(=O)NCc2ccc(C(=N)N)cc2)c1=O [1512-15] |
| 10 | N=C(N)c1ccc(CNC(=O)Cn2c(-c3ccccc3)c(Cl)nc(NC3CCCCCC3)c2=O)cc1 [1512-16] |
| 3 | N=C(N)c1ccc(CNC(=O)Cn2c(-c3ccccc3)c(Cl)nc(NC3CCS(=O)(=O)C3)c2=O)cc1 (stereo not drawn) [1512-19] |
| 6 | CC1CCCC(Nc2nc(Cl)c(-c3ccccc3)n(CC(=O)NCc3ccc(C(=N)N)cc3)c2=O)C1C (stereo not drawn) [1512-23] |
| 5 | N=C(N)c1ccc(CNC(=O)Cn2c(-c3ccccc3)c(Cl)nc(NCc3ccc(C(F)(F)F)cc3F)c2=O)cc1 [1512-26] |
| 3 | N=C(N)c1ccc(CNC(=O)Cn2c(-c3ccccc3)c(Cl)nc(NCc3cc(C(F)(F)F)ccc3F)c2=O)cc1 [1512-27] |
| 5 | N=C(N)c1ccc(CNC(=O)Cn2c(-c3ccccc3)c(Cl)nc(NCc3cc(F)c(F)c(F)c3)c2=O)cc1 [1512-32] |
| 4 | N=C(N)c1ccc(CNC(=O)Cn2c(-c3ccccc3)c(Cl)nc(NCc3cc(Cl)ccc3Cl)c2=O)cc1 [1512-35] |

The next lines start with the compound.

| SMILES | % Inhibition Factor Xa (30 µM) [%] |
| --- | --- |
| Cc1c(Cl)nc(NCc2ccccc2)c(=O)n1CC(=O)NCc1ccc(C(=N)N)cc1 [1471-1] | 10 |
| Cc1c(Cl)nc(NCCc2ccc(Cl)cc2)c(=O)n1CC(=O)NCc1ccc(C(=N)N)cc1 [1471-2] | 10 |
| Cc1c(Cl)nc(NCc2ccncc2)c(=O)n1CC(=O)NCc1ccc(C(=N)N)cc1 [1471-3] | 0 |
| Cc1c(Cl)nc(NCCN2CCOCC2)c(=O)n1CC(=O)NCc1ccc(C(=N)N)cc1 [1471-4] | 0 |
| Cc1c(Cl)nc(NCCc2ccncc2)c(=O)n1CC(=O)NCc1ccc(C(=N)N)cc1 [1471-5] | 12 |
| Cc1c(Cl)nc(NCCc2cccc(Cl)c2)c(=O)n1CC(=O)NCc1ccc(C(=N)N)cc1 [1471-6] | 14 |
| Cc1c(Cl)nc(NCCc2ccccc2)c(=O)n1CC(=O)NCc1ccc(C(=N)N)cc1 [1471-7] | 4 |
| Cc1c(Cl)nc(NCCc2cccnc2)c(=O)n1CC(=O)NCc1ccc(C(=N)N)cc1 [1471-8] | 27 |
| N=C(N)c1ccc(CNC(=O)Cn2c(-c3ccccc3)c(Cl)nc(NCc3ccccc3)c2=O)cc1 [1471-9] | 29 |
| N=C(N)c1ccc(CNC(=O)Cn2c(-c3ccccc3)c(Cl)nc(NCCc3ccc(Cl)cc3)c2=O)cc1 [1471-10] | 45 |
| N=C(N)c1ccc(CNC(=O)Cn2c(-c3ccccc3)c(Cl)nc(NCc3ccncc3)c2=O)cc1 [1471-11] | 9 |
| N=C(N)c1ccc(CNC(=O)Cn2c(-c3ccccc3)c(Cl)nc(NCCN3CCOCC3)c2=O)cc1 [1471-12] | 9 |
| N=C(N)c1ccc(CNC(=O)Cn2c(-c3ccccc3)c(Cl)nc(NCCc3ccncc3)c2=O)cc1 [1471-13] | 0 |
| N=C(N)c1ccc(CNC(=O)Cn2c(-c3ccccc3)c(Cl)nc(NCCc3cccnc3)c2=O)cc1 [1471-16] | 23 |
| N=C(N)c1ccc(CNC(=O)Cn2c(-c3ccc(Cl)cc3)c(Cl)nc(NCCc3ccc(Cl)cc3)c2=O)cc1 [1471-18] | 26 |
| N=C(N)c1ccc(CNC(=O)Cn2c(-c3ccc(Cl)cc3)c(Cl)nc(NCCc3cccc(Cl)c3)c2=O)cc1 [1471-22] | 28 |

| SMILES | % Inhibition Factor Xa (30 µM) [%] |
| --- | --- |
| N=C(N)c1ccc(CNC(=O)Cn2c(-c3ccc(Cl)cc3)c(Cl)nc(NCCc3ccccc3)c2=O)cc1 [1471-23] | 36 |
| N=C(N)c1ccc(CNC(=O)Cn2c(-c3cccc(Cl)c3)c(Cl)nc(NCc3ccccc3)c2=O)cc1 [1471-25] | 31 |
| N=C(N)c1ccc(CNC(=O)Cn2c(-c3cccc(Cl)c3)c(Cl)nc(NCc3ccncc3)c2=O)cc1 [1471-27] | 16 |
| N=C(N)c1ccc(CNC(=O)Cn2c(-c3cccc(Cl)c3)c(Cl)nc(NCCN3CCOCC3)c2=O)cc1 [1471-28] | 8 |
| N=C(N)c1ccc(CNC(=O)Cn2c(-c3cccc(Cl)c3)c(Cl)nc(NCCc3ccncc3)c2=O)cc1 [1471-29] | 21 |
| N=C(N)c1ccc(CNC(=O)Cn2c(-c3cccc(Cl)c3)c(Cl)nc(NCCc3cccc(Cl)c3)c2=O)cc1 [1471-30] | 41 |
| N=C(N)c1ccc(CNC(=O)Cn2c(-c3cccc(Cl)c3)c(Cl)nc(NCCc3ccccc3)c2=O)cc1 [1471-31] | 17 |
| N=C(N)c1ccc(CNC(=O)Cn2c(-c3cccc(Cl)c3)c(Cl)nc(NCCc3cccnc3)c2=O)cc1 [1471-32] | 25 |
| COc1ccc(-c2c(Cl)nc(NCCc3ccc(Cl)cc3)c(=O)n2CC(=O)NCc2ccc(C(=N)N)cc2)cc1 [1471-34] | 24 |
| N=C(N)c1ccc(CNC(=O)Cn2c(-c3ccc4c(c3)OCO4)c(Cl)nc(NCc3ccccc3)c2=O)cc1 [1471-41] | 34 |
| N=C(N)c1ccc(CNC(=O)Cn2c(-c3ccc4c(c3)OCO4)c(Cl)nc(NCCc3ccc(Cl)cc3)c2=O)cc1 [1471-42] | 15 |
| N=C(N)c1ccc(CNC(=O)Cn2c(-c3ccc4c(c3)OCO4)c(Cl)nc(NCc3ccncc3)c2=O)cc1 [1471-43] | 18 |
| N=C(N)c1ccc(CNC(=O)Cn2c(-c3ccc4c(c3)OCO4)c(Cl)nc(NCCc3ccncc3)c2=O)cc1 [1471-45] | 24 |
| N=C(N)c1ccc(CNC(=O)Cn2c(-c3ccc4c(c3)OCO4)c(Cl)nc(NCCc3cccc(Cl)c3)c2=O)cc1 [1471-46] | 21 |
| N=C(N)c1ccc(CNC(=O)Cn2c(-c3ccc4c(c3)OCO4)c(Cl)nc(NCCc3ccccc3)c2=O)cc1 [1471-47] | 22 |
| N=C(N)c1ccc(CNC(=O)Cn2c(-c3ccc4c(c3)OCO4)c(Cl)nc(NCCc3cccnc3)c2=O)cc1 [1471-48] | 17 |
